According to patent US20060134206A1, “Oral compositions for treatment of diseases” (priority 2003, published 2006):

Columns and labels:
[1] = In-house study: metformin co-administered with propantheline; assay type: in vivo; settings: compared with metformin alone
[2] = tested on: type 2 diabetes patients; settings: overweight type 2 diabetes patients assigned metformin; microvascular and macrovascular; cited from earlier work
[3] = cited from earlier work
[4] = oral, conventional metformin; cited from earlier work
[5] = tested on: human vascular ATP-dependent K+ channels; settings: cited from earlier work
[6] = allows once daily treatment; cited from earlier work
[7] = tested on: people with diabetes; settings: versus placebo, cited from earlier work

## CN(C)C(=N)N=C(N)N [metformin]
[1]
  AUC: increased
  Tmax: delayed
  time period over which therapeutically beneficial plasma levels were maintained: extended
[2]
  relative risk reduction of developing any diabetes related end points: 32%
[3]; drug perfused into the colon
  drug in plasma: not detectable
[3]; perfusion into jejunum compared with ileum
  area under the plasma concentration-time profile, jejunum versus ileum perfusion: 2.5 fold
[4]
  gastrointestinal absorption apparently complete (time after ingestion): ≤ 6 h

## CCC1=C(C)CN(C(=O)NCCc2ccc(S(=O)(=O)NC(=O)N[C@H]3CC[C@H](C)CC3)cc2)C1=O [glimepiride]
[5]
  effect on human vascular ATP-dependent K+ channels: no effect
[6]
  long life: 9 h

## CCOC(=O)[C@H](CCc1ccccc1)N[C@@H](C)C(=O)N1[C@H](C(=O)O)C[C@@H]2CCC[C@@H]21 [ramipril]
[7]; 3,577 people with diabetes, 4.5 years
  lowering of relative risk of a major cardiovascular event (myocardial infarction, stroke or cardiovascular death): 25%
[7]; 3,577 people with diabetes
  lowering of absolute risk of a major cardiovascular event: 4.5%
[7]; people with diabetes
  absolute risk reduction of overt nephropathy: 2.0%
  reduction of relative risk of overt nephropathy: 24%
